Values of other authors, collected in patent publication US20020160961A1, “Compositions for the treatment of the catabolic state of prolonged critical illness” (priority 1999, published 2002).

Tested on: pulsatile TSH secretion
Conditions: TRH infused together with GHRP-2; catabolic state of prolonged critical illness

Structure (SMILES): NC(=O)[C@@H]1CCCN1C(=O)[C@H](Cc1cnc[nH]1)NC(=O)[C@@H]1CCC(=O)N1 [TRH, thyrotropin-releasing hormone]
- pulsatile TSH secretion: increased pulsatile TSH secretion
